“Also recorded” adds a separate entry of the source.
Legend:
[1] = test system: microorganisms; assay: Morphology, biofilm and growth disrupting peptides (Table 5); assay type: cell-based; set-up: key: A: Peptide aggregates; B: Less hyphal formation; Clumps; Diffuse clumps and small polyps; F: Diffuse growth; H: Thin; I: Growth inhibition; Microcolony formation; Rippled; Small polyps; Thick; W: Halo formation on top, microlonies on bottom
Text: In certain embodiments peptides that induce alterations in phenotype or other biological activities can also be used as antimicrobial effector moieties.

[2] = test system: microorganisms; assay: Targeting peptide binding to target microorganisms (Tables 3, 10, 12); conditions: microorganism(s) the targeting peptide binds; binding in aqueous buffers varied with peptide solubility, preferably 1x PBS
[3] = test system: microorganisms; assay: Peptide activities: targeting/binding, antimicrobial, growth or phenotype altering (Tables 7, 8); assay type: cell-based; conditions: peptides having multiple activities

Substance: PF-396: peptide having multiple activities (chain 1 LIYTILASLGVLTVLQAILGREPKAVKA; chain 2 LIYTILASLGVLTVLQAILGREPKAVKA; Peptide with targeting and/or antimicrobial activity)
- Organism, effect: E. coli ([1]; E. coli): E. coli (C)
- Organism, effect: E. faecalis ([1]; E. faecalis): E. faecalis (C)
- Organism, effect: MRSA ([1]; MRSA): MRSA (C)
- Organism, effect: S. epidermidis ([1]; S. epidermidis): S. epidermidis (S)
- Target(s) [2]: S. epidermidis; also recorded: E. coli; also recorded: P. aeruginosa; also recorded: C. albicans; also recorded: E. faecalis; also recorded: C. jeikeium
- Activities [3]: G B

Substance: PF-397: peptide having multiple activities (chain 1 VEDLMEDLNA; chain 2 VEDLMEDLNA; Peptide with targeting and/or antimicrobial activity)
- Organism, effect: S. epidermidis ([1]; S. epidermidis): S. epidermidis (C)
- Target(s) [2]: S. epidermidis and MRSA and S. pneumoniae and E. faecalis and C. jejuni
- Activities [3]: G B

Substance: PF-401: peptide having multiple activities (chain 1 YWLSRVTTGHSFAFEKPVPLSLTIK; chain 2 YWLSRVTTGHSFAFEKPVPLSLTIK; Peptide with targeting and/or antimicrobial activity)
- Organism, effect: E. coli ([1]; E. coli): E. coli (R)
- Organism, effect: E. faecalis ([1]; E. faecalis): E. faecalis (C)
- Organism, effect: MRSA ([1]; MRSA): MRSA (C)
- Organism, effect: S. epidermidis ([1]; S. epidermidis): S. epidermidis (C)
- Target(s) [2]: S. epidermidis and E. coli and P. aeruginosa and MRSA and E. faecalis and C. jejuni
- Activities [3]: G B

Substance: PF-403: peptide having multiple activities (chain 1 LLSTEQLLKYYDGETFDGFQLPSNE; chain 2 LLSTEQLLKYYDGETFDGFQLPSNE; Peptide with targeting and/or antimicrobial activity)
- Organism, effect: E. coli ([1]; E. coli): E. coli (R)
- Organism, effect: MRSA ([1]; MRSA): MRSA (M)
- Organism, effect: S. epidermidis ([1]; S. epidermidis): S. epidermidis (M)
- Target(s) [2]: E. coli; also recorded: P. aeruginosa; also recorded: S. pneumoniae; also recorded: E. faecalis; also recorded: C. jeikeium; also recorded: C. jejuni
- Activities [3]: G B

Substance: PF-404: peptide having multiple activities (chain 1 VLYFQATVV; chain 2 VLYFQATVV; Peptide with targeting and/or antimicrobial activity)
- Organism, effect: MRSA ([1]; MRSA): MRSA (M)
- Organism, effect: S. epidermidis ([1]; S. epidermidis): S. epidermidis (M)
- Target(s) [2]: S. epidermidis; also recorded: E. coli; also recorded: P. aeruginosa; also recorded: E. faecalis; also recorded: C. jeikeium; also recorded: C. jejuni
- Activities [3]: G B

Substance: PF-405: peptide having multiple activities (chain 1 LVRIEVDDLEEWYERNFI; chain 2 LVRIEVDDLEEWYERNFI; Peptide with targeting and/or antimicrobial activity)
- Organism, effect: MRSA ([1]; MRSA): MRSA (M)
- Target(s) [2]: S. epidermidis; also recorded: E. coli; also recorded: E. faecalis
- Activities [3]: G B

Substance: PF-406: peptide having multiple activities (chain 1 YLEMNADYLSNMDIFDELWEKYLENNK; chain 2 YLEMNADYLSNMDIFDELWEKYLENNK; Peptide with targeting and/or antimicrobial activity)
- Organism, effect: MRSA ([1]; MRSA): MRSA (M)
- Organism, effect: S. epidermidis ([1]; S. epidermidis): S. epidermidis (C)
- Target(s) [2]: E. coli; also recorded: C. jejuni
- Activities [3]: G B

Substance: PF-408: peptide having multiple activities (chain 1 YCVPLGNMGNMNNKIW; chain 2 YCVPLGNMGNMNNKIW; Peptide with targeting and/or antimicrobial activity)
- Organism, effect: MRSA ([1]; MRSA): MRSA (M)
- Organism, effect: S. epidermidis ([1]; S. epidermidis): S. epidermidis (M)
- Target(s) [2]: S. epidermidis and E. coli and P. aeruginosa and MRSA and E. faecalis and C. jeikeium and C. jejuni
- Activities [3]: G B

Substance: PF-413: peptide having multiple activities (chain 1 TFAGSIKIGVPDLVHVTFNCKR; chain 2 TFAGSIKIGVPDLVHVTFNCKR; Peptide with targeting and/or antimicrobial activity)
- Organism, effect: E. coli ([1]; E. coli): E. coli (S)
- Organism, effect: MRSA ([1]; MRSA): MRSA (C)
- Organism, effect: S. epidermidis ([1]; S. epidermidis): S. epidermidis (C)
- Target(s) [2]: P. aeruginosa; also recorded: C. albicans; also recorded: C. jejuni
- Activities [3]: G B

Substance: PF-414: peptide having multiple activities (chain 1 LLNKKLE; chain 2 LLNKKLE; Peptide with targeting and/or antimicrobial activity)
- Organism, effect: S. pneumoniae ([1]; S. pneumoniae): S. pneumoniae (H)
- Target(s) [2]: E. coli; also recorded: C. albicans; also recorded: C. jeikeium
- Activities [3]: G B

Substance: PF-416: peptide having multiple activities (chain 1 SKAGLYGKIERSDKRE; chain 2 SKAGLYGKIERSDKRE; Peptide with targeting and/or antimicrobial activity)
- Organism, effect: S. pneumoniae ([1]; S. pneumoniae): S. pneumoniae (H)
- Target(s) [2]: S. pneumoniae; also recorded: C. jeikeium
- Activities [3]: G B

Substance: PF-417: peptide having multiple activities (chain 1 DSYFRS; chain 2 DSYFRS; Peptide with targeting and/or antimicrobial activity)
- Organism, effect: MRSA ([1]; MRSA): MRSA (M)
- Organism, effect: S. epidermidis ([1]; S. epidermidis): S. epidermidis (M)
- Organism, effect: S. pneumoniae ([1]; S. pneumoniae): S. pneumoniae (M)
- Target(s) [2]: S. epidermidis; also recorded: C. jeikeium; also recorded: C. jejuni
- Activities [3]: G B

Substance: PF-421: peptide having multiple activities (chain 1 KHCFEITDKTDVV; chain 2 KHCFEITDKTDVV; Peptide with targeting and/or antimicrobial activity)
- Organism, effect ([1]; S. pneumoniae): S. pneumoniae (H)
- Target(s) [2]: C. jeikeium
- Activities [3]: G B

Substance: PF-423: peptide having multiple activities (chain 1 AGKKERLLSFREQFLNKNKKK; chain 2 AGKKERLLSFREQFLNKNKKK; Peptide with targeting and/or antimicrobial activity)
- Organism, effect ([1]; S. pneumoniae): S. pneumoniae (H)
- Target(s) [2]: S. epidermidis; also recorded: M. luteus; also recorded: E. coli; also recorded: S. pneumoniae; also recorded: E. faecalis; also recorded: C. jeikeium
- Activities [3]: G B

Substance: PF-424: peptide having multiple activities (chain 1 IAAFVTSRAFSDTVSPI; chain 2 IAAFVTSRAFSDTVSPI; Peptide with targeting and/or antimicrobial activity)
- Organism, effect ([1]; S. pneumoniae): S. pneumoniae (H)
- Target(s) [2]: S. epidermidis and C. albicans and MRSA
- Activities [3]: G B

Substance: PF-425: peptide having multiple activities (chain 1 MMELVLKTIIGPIVVGVVLRIVDKWLNKDK; chain 2 MMELVLKTIIGPIVVGVVLRIVDKWLNKDK; Peptide with targeting and/or antimicrobial activity)
- Organism, effect ([1]; C. albicans): C. albicans (A)
- Organism, effect ([1]; C. jejuni): C. jejuni (D)
- Organism, effect ([1]; E. coli): E. coli (C)
- Organism, effect ([1]; E. faecalis): E. faecalis (D)
- Organism, effect ([1]; MRSA): MRSA (D)
- Organism, effect ([1]; P. aeruginosa): P. aeruginosa (A)
- Organism, effect ([1]; S. epidermidis): S. epidermidis (D)
- Organism, effect ([1]; S. pneumoniae): S. pneumoniae (D)
- Target(s) [2]: S. epidermidis and M. luteus and E. coli and P. aeruginosa and C. albicans and MRSA and S. pneumoniae and C. jeikeium
- Activities [3]: G B

Substance: PF-426: peptide having multiple activities (chain 1 MLQKYTQMISVTKCIITKNKKTQENVDAYN; chain 2 MLQKYTQMISVTKCIITKNKKTQENVDAYN; Peptide with targeting and/or antimicrobial activity)
- Organism, effect ([1]; C. albicans): C. albicans (A)
- Organism, effect ([1]; C. jejuni): C. jejuni (D)
- Organism, effect ([1]; E. coli): E. coli (C)
- Organism, effect ([1]; E. faecalis): E. faecalis (D)
- Organism, effect ([1]; MRSA): MRSA (D)
- Organism, effect ([1]; S. epidermidis): S. epidermidis (D)
- Organism, effect ([1]; S. pneumoniae): S. pneumoniae (D)
- Target(s) [2]: S. epidermidis and E. coli and P. aeruginosa and C. albicans and MRSA and S. pneumoniae and E. faecalis and C. jeikeium
- Activities [3]: G B

Substance: PF-427: peptide having multiple activities (chain 1 YVLEYHGLRATQDVDAFMAL; chain 2 YVLEYHGLRATQDVDAFMAL; Peptide with targeting and/or antimicrobial activity)
- Organism, effect ([1]; E. coli): E. coli (C)
- Organism, effect ([1]; E. faecalis): E. faecalis (C)
- Organism, effect ([1]; MRSA): MRSA (C)
- Organism, effect ([1]; S. pneumoniae): S. pneumoniae (R)
- Target(s) [2]: M. luteus; also recorded: P. aeruginosa; also recorded: C. albicans; also recorded: C. jejuni
- Activities [3]: G B

Substance: PF-428: peptide having multiple activities (chain 1 ENEESIF; chain 2 ENEESIF; Peptide with targeting and/or antimicrobial activity)
- Organism, effect ([1]; S. pneumoniae): S. pneumoniae (H)
- Target(s) [2]: S. epidermidis; also recorded: C. albicans; also recorded: E. faecalis; also recorded: C. jeikeium
- Activities [3]: G B

Substance: PF-429: peptide having multiple activities (chain 1 AATLICVGSGIMSSL; chain 2 AATLICVGSGIMSSL; Peptide with targeting and/or antimicrobial activity)
- Organism, effect ([1]; E. faecalis): E. faecalis (C)
- Organism, effect ([1]; MRSA): MRSA (C)
- Organism, effect ([1]; S. epidermidis): S. epidermidis (C)
- Organism, effect ([1]; S. pneumoniae): S. pneumoniae (M)
- Target(s) [2]: S. epidermidis; also recorded: S. pneumoniae; also recorded: C. jeikeium
- Activities [3]: G B
